Experimental data as given in PubChem BioAssay AID2772 (The Scripps Research Institute Molecular Screening Center, 2010).
Calls of active or inactive are those of the source. The rule behind the calls is not given here.

What follows are compounds tested against Signal transducer and activator of transcription 1-alpha/beta (Homo sapiens) (UniProt P42224) (assay: STAT1 reporter inhibitors in fibroblasts, late-stage follow-up, cell-based, luminescence, NIH 3T3, dose response (AID 2772)). Conditions: NIH 3T3 fibroblasts, STAT1 luciferase reporter.
Chain of Signal transducer and activator of transcription 1-alpha/beta (Homo sapiens) (P42224 whole entry, looked up): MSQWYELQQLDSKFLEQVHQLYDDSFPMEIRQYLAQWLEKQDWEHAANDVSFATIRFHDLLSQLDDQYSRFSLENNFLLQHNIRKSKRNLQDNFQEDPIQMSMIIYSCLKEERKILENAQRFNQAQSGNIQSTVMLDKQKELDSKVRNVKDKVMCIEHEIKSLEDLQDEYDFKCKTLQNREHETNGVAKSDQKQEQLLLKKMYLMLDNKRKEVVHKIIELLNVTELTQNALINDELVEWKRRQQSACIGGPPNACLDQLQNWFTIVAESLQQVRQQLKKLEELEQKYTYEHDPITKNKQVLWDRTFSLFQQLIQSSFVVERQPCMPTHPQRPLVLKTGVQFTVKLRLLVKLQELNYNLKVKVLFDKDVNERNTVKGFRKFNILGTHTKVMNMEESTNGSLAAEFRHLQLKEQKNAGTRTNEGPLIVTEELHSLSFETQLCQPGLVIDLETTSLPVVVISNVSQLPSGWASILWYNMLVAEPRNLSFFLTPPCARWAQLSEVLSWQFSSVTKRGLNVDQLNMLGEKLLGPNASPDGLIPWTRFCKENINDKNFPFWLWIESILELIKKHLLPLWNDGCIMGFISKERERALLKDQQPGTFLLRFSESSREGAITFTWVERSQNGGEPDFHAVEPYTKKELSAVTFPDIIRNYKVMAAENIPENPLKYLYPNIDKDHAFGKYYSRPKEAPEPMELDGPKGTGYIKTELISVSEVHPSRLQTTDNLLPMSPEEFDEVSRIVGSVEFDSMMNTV
In the case of `O=C(c1ccc(-n2c(=S)[nH]c3ccccc3c2=O)cc1)N1CCN(C2CCCCC2)CC1`, the IC50 is reported as > 55.7 µM (inactive). In the case of `O=C(c1ccc(-n2c(=S)[nH]c3ccccc3c2=O)cc1)N1CCN(C(=O)c2ccco2)CC1`, the IC50 is reported as > 55.7 µM (inactive). For `CCOc1ccc2oc(=O)cc(CSc3nc4ccccc4c(=O)[nH]3)c2c1`, the IC50 was > 55.7 µM (inactive). With `Cc1ccc(-n2nc(C(=O)O)c3ccccc3c2=O)cc1C` the IC50 was > 55.7 µM (inactive). With `CN(C)Cc1nc2ccccc2c(=O)n1Cc1nc(C(C)(C)C)cs1` the IC50 was “inactive”. With `CNC(=O)c1nn(-c2ccc(F)cc2)c(=O)c2ccccc12` the IC50 was > 55.7 µM (inactive). With `CCOC(=O)N1CCN(C(=O)c2ccc(-n3c(=S)[nH]c4ccccc4c3=O)cc2)CC1` the IC50 was “inactive”. For `CCOc1ccc(-c2csc(Cn3c(CN4CCN(C)CC4)nc4ccccc4c3=O)n2)cc1`, the IC50 was > 18.6 µM (inactive). For `Cc1ccc(-n2nc(C(=O)O)c3ccccc3c2=O)cc1Cl`, the IC50 was “inactive”. In the case of `O=C(OCC1CCCCC1)c1nn(-c2ccccc2)c(=O)c2ccccc12`, the IC50 is reported as > 55.7 µM (inactive). `O=C(O)c1nn(-c2ccc(F)cc2)c(=O)c2ccccc12` was tested, and the IC50 was > 55.7 µM (inactive). With `O=C(c1ccc(-n2c(=S)[nH]c3ccccc3c2=O)cc1)N1CCN(c2ccc(F)cc2)CC1` the IC50 was > 55.7 µM (inactive). With `O=C(Nc1ccc(F)cc1)C(c1ccccc1)N1CCN(S(=O)(=O)c2ccccc2)CC1` (centres undefined) the IC50 was > 55.7 µM (inactive). For `Cc1cc2oc(=O)cc(CSc3nc4ccccc4c(=O)[nH]3)c2cc1Cl`, the IC50 was > 55.7 µM (inactive). With `CCC(C(=O)Nc1ccccc1)N1CCN(S(=O)(=O)c2ccc3c(c2)CCC3)CC1` (centres undefined) the IC50 was > 55.7 µM (inactive). With `CC(=O)c1ccc(S(=O)(=O)N2CCN(C(C(=O)Nc3ccc(C)cc3)c3ccccc3)CC2)cc1` (centres undefined) the IC50 was > 55.7 µM (inactive). `N#Cc1ccccc1S(=O)(=O)N1CCN(C(C(=O)Nc2ccc(F)cc2)c2ccccc2)CC1` (centres undefined) was tested, and the IC50 was > 55.7 µM (inactive). `CN1CCN(Cc2nc3ccccc3c(=O)n2Cc2nc(-c3ccccc3F)cs2)CC1` was tested, and the IC50 was “inactive”. With `COc1cccc(-c2csc(Cn3c(CN4CCOCC4)nc4ccccc4c3=O)n2)c1` the IC50 was “inactive”. `COc1cc2c(cc1OC)C(=O)N(Cc1nnc(-c3ccc(Cl)cc3)o1)C(=CN1CCOCC1)N2` was tested, and the IC50 was > 55.7 µM (inactive). For `COC(=O)c1nn(-c2ccc(F)cc2)c(=O)c2ccccc12`, the IC50 was > 55.7 µM (inactive). For `CN(C)Cc1nc2ccccc2c(=O)n1Cc1nc(-c2cccc([N+](=O)[O-])c2)cs1`, the IC50 was > 18.6 µM (inactive). `CCC(C)c1ccc(-c2csc(CN3C(=O)c4ccccc4N/C3=C\N3CCN(C)CC3)n2)cc1` (centres undefined) was tested, and the IC50 was > 18.6 µM (inactive). In the case of `O=C1c2ccccc2N/C(=C\N2CCOCC2)N1Cc1nc(-c2ccccc2F)cs1`, the IC50 is reported as “inactive”. `CC(C(=O)Nc1ccccc1)N1CCN(S(=O)(=O)c2ccccc2)CC1` (centres undefined) was tested, and the IC50 was > 55.7 µM (inactive). For `CN(Cc1ccccc1N1CCCC1)C(=O)c1nn(-c2ccccc2)c(=O)c2ccccc12`, the IC50 was > 55.7 µM (inactive). With `Cc1ccc(C)c(NC(=O)C(c2ccccc2)N2CCN(S(=O)(=O)c3ccccc3C#N)CC2)c1` (centres undefined) the IC50 was > 55.7 µM (inactive). With `CCOC(=O)Nc1ccc2c(CSc3nc4ccccc4c(=O)[nH]3)cc(=O)oc2c1` the IC50 was > 55.7 µM (inactive). For `COc1cc2c(cc1OC)C(=O)N(Cc1coc(-c3ccccc3)n1)C(=CN1CCOCC1)N2`, the IC50 was > 55.7 µM (inactive). With `CCOC(=O)c1ccc(S(=O)(=O)N2CCN(C(C(=O)Nc3ccc(OC)c(Cl)c3)c3ccccc3)CC2)cc1` (centres undefined) the IC50 was > 55.7 µM (inactive). `O=C(Nc1ccc(F)cc1)C(c1ccccc1)N1CCN(C(=O)c2ccccc2)CC1` (centres undefined) was tested, and the IC50 was > 55.7 µM (inactive). `C=C1NN(c2ccc(C(=O)N3CCC(Cc4ccccc4)CC3)cc2)C(=O)c2ccccc21` was tested, and the IC50 was > 55.7 µM (inactive). For `COc1ccc(N2CCN(C(=O)c3ccc(-n4c(=S)[nH]c5ccccc5c4=O)cc3)CC2)cc1`, the IC50 was > 55.7 µM (inactive). In the case of `O=C(Nc1ccc(F)cc1)C(c1ccccc1)N1CCN(S(=O)(=O)c2ccc3ccccc3c2)CC1` (centres undefined), the IC50 is reported as > 55.7 µM (inactive). `CC(C(=O)Nc1ccc(F)c(F)c1)N1CCN(S(=O)(=O)c2ccc(C(F)(F)F)cc2)CC1` (centres undefined) was tested, and the IC50 was > 55.7 µM (inactive). `O=C(Nc1ccc(F)cc1)C(c1ccccc1)N1CCN(S(=O)(=O)c2ccc3c(c2)OCCO3)CC1` (centres undefined) was tested, and the IC50 was > 55.7 µM (inactive). In the case of `Cc1ccc2oc(=O)cc(CSc3nc(-c4ccccc4)c4ccccc4n3)c2c1`, the IC50 is reported as > 55.7 µM (inactive). With `O=C(Nc1ccc(Cl)c(C(F)(F)F)c1)C(c1ccccc1)N1CCN(S(=O)(=O)c2ccccc2)CC1` (centres undefined) the IC50 was > 55.7 µM (inactive). With `O=c1cc(CSc2nc3ccccc3c(=O)[nH]2)c2ccc(O)cc2o1` the IC50 was “inactive”. In the case of `COc1cccc(NC(=O)C(c2ccccc2)N2CCN(S(=O)(=O)c3ccc(C)cc3)CC2)c1` (centres undefined), the IC50 is reported as “inactive”. For `CCOc1ccccc1NC(=O)C(c1ccccc1)N1CCN(S(=O)(=O)c2ccc(F)c(F)c2F)CC1` (centres undefined), the IC50 was > 55.7 µM (inactive). With `N#Cc1ccc(S(=O)(=O)N2CCN(C(C(=O)Nc3ccc(F)cc3)c3ccccc3)CC2)cc1` (centres undefined) the IC50 was > 55.7 µM (inactive). With `CN1CCN(C(=O)c2ccc(-n3c(=S)[nH]c4ccccc4c3=O)cc2)CC1` the IC50 was > 55.7 µM (inactive). `O=C(c1ccc(-n2c(=S)[nH]c3ccccc3c2=O)cc1)N1CCN(c2ccccc2)CC1` was tested, and the IC50 was > 55.7 µM (inactive). `Cc1ccc(NC(=O)C(c2ccccc2)N2CCN(S(=O)(=O)c3ccccc3)CC2)cc1` (centres undefined) was tested, and the IC50 was > 55.7 µM (inactive). In the case of `NC(=O)c1ccc(S(=O)(=O)N2CCN(C(C(=O)Nc3ccc(F)cc3)c3ccccc3)CC2)cc1` (centres undefined), the IC50 is reported as > 55.7 µM (inactive). For `CN(C)C(=O)c1nn(-c2ccc(F)cc2)c(=O)c2ccccc12`, the IC50 was > 55.7 µM (inactive). For `COc1ccc(C)cc1NC(=O)C(c1ccccc1)N1CCN(S(=O)(=O)c2ccc(F)cc2)CC1` (centres undefined), the IC50 was > 55.7 µM (inactive). `Cc1ccc(C)c(S(=O)(=O)N2CCN(C(C(=O)Nc3ccc(F)cc3)c3ccccc3)CC2)c1` (centres undefined) was tested, and the IC50 was > 55.7 µM (inactive). In the case of `CN1CCN(Cc2nc3ccccc3c(=O)n2Cc2nc(-c3cccc([N+](=O)[O-])c3)cs2)CC1`, the IC50 is reported as “inactive”. For `O=C1c2ccccc2N/C(=C\N2CCOCC2)N1Cc1nc(-c2ccc(F)c(F)c2)cs1`, the IC50 was “inactive”. `CN1CCN(C=C2Nc3ccccc3C(=O)N2Cc2nc(C34CC5CC(CC(C5)C3)C4)cs2)CC1` was tested, and the IC50 was > 55.7 µM (inactive). In the case of `O=c1c2ccccc2nc(CN2CCOCC2)n1Cc1nc(-c2ccc[nH]2)cs1`, the IC50 is reported as “inactive”. For `COc1cc2c(cc1OC)C(=O)N(Cc1cc(-c3ccccc3OC)no1)C(=CN1CCOCC1)N2`, the IC50 was > 55.7 µM (inactive).
